The record followed here is patent US9340577B2, “HLA binding motifs and peptides and their uses” (priority 1992, dated 2016).

pIC50: −log10 of the molar value. Like-named read-outs stand apart in the source and are kept apart here. No end group written: not given here.

Holding throughout (experiment): biochemical
In assay [1] the target is DR1 (DRB1*0101) (Homo sapiens, UniProt P01903+P01911, A100R/D57E/F55L/F60I/F76Y/I96L/L162R/M171V/P40L/Q125E/R42F/V115G/Y59C). The assay is classed as binding.
The target in assay [2] is DR4w4 (DRB1*0401) (Homo sapiens, UniProt P01903+P01911, A100K/A169T/F76Y/I96L/K127E/L162R/M171V/N62H/P40V/Q125Y/R42H/S133A/S149N/S66Y/V115G/V209L/W38E). Format: binding.
The target of assay [3] is DR7 (DRB1*0701) (Homo sapiens, UniProt P01903+P01911, A100R/A102G/A103Q/D57E/D86V/E43K/F76Y/K127E/L162R/M171V/P40G/Q125H/Q99D/R33Q/R42Y/R54Q/S133A/S66F/T210M/V115G/Y107V/Y59L/Y89S). The assay is classed as binding.
Assay [4] deals with DRB1*0301 (Homo sapiens, UniProt P01903+P01911, A100K/A102G/A103R/A169T/F55Y/I96L/K41T/L162R/M171V/P40S/Q125H/Q178H/Q39Y/R42S/S66N/T106N/T262R/W38E/Y61H). The assay is classed as binding.
Sequence of DRB1*0301 (P01903 26-254 limits assumed, other chains not shown): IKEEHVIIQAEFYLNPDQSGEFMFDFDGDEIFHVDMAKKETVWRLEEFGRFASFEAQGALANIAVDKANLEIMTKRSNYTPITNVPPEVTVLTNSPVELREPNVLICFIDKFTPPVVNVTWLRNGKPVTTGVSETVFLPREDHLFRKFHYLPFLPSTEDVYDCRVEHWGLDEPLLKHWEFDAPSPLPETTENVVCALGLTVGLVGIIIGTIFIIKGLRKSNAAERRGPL
Assay [5] addresses DRB1*0802 (Homo sapiens, UniProt P01903+P01911, A100R/A103L/A169T/F76Y/H45Y/I96F/K41T/L162R/M171V/P40S/Q125H/Q178H/Q39Y/Q99D/R218S/R42G/S66Y/V115G/W38E). The assay is classed as binding.
In assay [6] the target is DRB1*1201 (Homo sapiens, UniProt P01903+P01911, A100R/A169T/D57E/D86V/F55L/H45Y/K41T/L162R/M171V/P40S/Q125H/Q178H/Q39Y/Q99D/R42G/S66L/T262R/V114A/V67L/W38E/Y59H/Y61H/Y89S). Format: binding.
The target of assay [7] is DRB1*1302 (Homo sapiens, UniProt P01903+P01911, A100E/A169T/K41T/L162R/M171V/P40S/Q125H/Q178H/Q39Y/Q99D/R42S/S66N/T262R/V115G/W38E/Y61H). The assay is classed as binding.
Sequence of DRB1*1302 (P01903 26-254 limits assumed, other chains not shown): as above
In assay [8] the target is DRB4*0101 (Homo sapiens, UniProt P01903+P13762, G164S). The assay is classed as binding.
Assay [9] addresses DRB1*1101 (Homo sapiens, UniProt P01903+P01911, A100R/A169T/A87E/I96F/K41T/L162R/M171V/P40S/Q125H/Q178H/Q39Y/Q99D/R42S/S66Y/T262R/V115G/W38E).
Assay [10] concerns the target DRB5*0101 (Homo sapiens, UniProt P01903+Q30154).
Assay [11] deals with DRB1*0901 (Homo sapiens, UniProt P01903+P01911, A100R/A103E/D57H/D86V/F55Y/F60I/F76Y/I96F/K127E/L162R/M171V/P40D/Q125H/Q99R/R33Q/R42F/S133A/S66N/T210M/V115G/W38K/Y107V/Y59G/Y89S). Format: binding.
Assay [12] deals with DRB1*1501 (Homo sapiens, UniProt P01903+P01911). Format: binding.

Sequence of DRB1*1101 (P01903 26-254 limits assumed, other chains not shown): as above

In the case of WKAVRHENVLYYKAR [Peptide 90.0230], the pIC50 (usually −log10 of the IC50, conventionally taken in molar units) in assay [1] is 6.79; in [2] it was 6.14; in [3], 6.18; in assay [4], 7.12; in assay [5], 6.21; in assay [6], 6.38. The negative-log IC50 (pIC50) in assay [7] was 6.58; in assay [8] it was 6.72; in assay [9], 5.67; in assay [10], 6.12.
As to LKLFLKGVPKKNCIL [Peptide 89.0054], the negative-log IC50 (pIC50) was 6.70 in assay [1]; 5.54 in [2]; 5.00 in assay [4]; 6.47 in [5]; 5.70 in assay [11]; 5.76 in assay [6]. Further, the negative-log IC50 (pIC50) was 5.47 in assay [7], 5.47 in assay [12] and 6.21 in assay [8].
As to `CC[C@H](C)[C@H](NC(=O)[C@H](Cc1c[nH]cn1)NC(=O)[C@H](C)NC(=O)[C@H](Cc1ccc(O)cc1)NC(=O)[C@H](CC(C)C)NC(=O)[C@@H](NC(=O)[C@H](Cc1ccccc1)NC(=O)[C@@H]1CCCN1C(=O)[C@H](CCC(N)=O)NC(=O)[C@@H](NC(=O)[C@H](CC(C)C)NC(=O)[C@@H](NC(=O)[C@H](CCCCN)NC(=O)[C@@H](N)Cc1ccccc1)[C@@H](C)O)[C@@H](C)CC)[C@@H](C)CC)C(=O)N[C@@H](CCC(N)=O)C(=O)O` [Peptide 89.0025], the negative logarithm of the IC50 (pIC50) in [1] was 7.57; in assay [2] it was 6.14; in assay [3], 6.05; in assay [4], < 4.70; in assay [11], 7.01; in assay [6], 6.29. Moreover, the figures for the negative logarithm of the IC50 (pIC50) in assay [12], in assay [8] and in assay [10] (Binding affinity DRB5 *0101) were 7.70, 8.02 and 5.07, respectively.
As for `CSCC[C@H](NC(=O)[C@H](Cc1ccc(O)cc1)NC(=O)[C@H](Cc1ccc(O)cc1)NC(=O)[C@@H](NC(=O)[C@@H](N)CO)C(C)C)C(=O)N[C@H](C(=O)N[C@@H](CC(=O)O)C(=O)N[C@@H](C)C(=O)NCC(=O)N[C@H](C(=O)N[C@@H](Cc1c[nH]c2ccccc12)C(=O)N[C@@H](CC(=O)O)C(=O)N[C@@H](CCCCN)C(=O)N[C@H](C(=O)N[C@@H](C)C(=O)O)[C@@H](C)O)[C@@H](C)O)[C@@H](C)O` [Peptide 90.0182], the negative logarithm of the IC50 (pIC50) is 8.03 in [1]; 6.48 in assay [4]; 5.07 in assay [5]; 5.80 in assay [11]; 6.15 in assay [6]; 7.85 in assay [7]. The pIC50 in assay [12] was 7.37; in assay [8] it was 8.15; in assay [9] (Binding affinity DRB1 *1101) it was 5.54; in assay [10] (Binding affinity DRB5 *0101), < 4.70.
For the compound IHFIQGAVISFVNST [Peptide 89.0037], the pIC50 in assay [1] is 7.51; in assay [2] it was 5.29; in assay [3], 6.47; in [4] it was < 4.70; in assay [5], 4.93; in assay [6], 6.14. Moreover, the pIC50 in assay [12] is 5.16; in assay [8], 6.81; in assay [9] (Binding affinity DRB1 *1101), < 4.70; in assay [10] (Binding affinity DRB5 *0101) it was < 4.70.
Regarding IIHLKGDPNSLKCLR [Peptide 90.0228], the pIC50 in [2] is 6.92; in assay [3], 5.60; in assay [4], 7.96; in [5] it was 6.06; in assay [11] it was < 4.70; in [6], 5.23. The pIC50 is 6.79 in assay [7], 5.72 in assay [8], < 4.70 in [9] (Binding affinity DRB1 *1101) and 5.87 in [10] (Binding affinity DRB5 *0101).
Turning to RLTVAKGLSTLLHVP [Peptide 89.0028], the negative logarithm of the IC50 (pIC50) in [1] is 7.34; in assay [2], 7.28; in [3], 6.74; in assay [4], 4.84; in [5] it was 6.30; in assay [11] it was 6.40. Also, the pIC50 was 6.56 in assay [6], 6.17 in [7], 6.39 in assay [8] and 6.63 in [9] (Binding affinity DRB1 *1101).
Regarding `CC[C@H](C)[C@H](NC(=O)CNC(=O)[C@@H](NC(=O)[C@H](CCCCN)NC(=O)[C@H](Cc1ccc(O)cc1)NC(=O)[C@H](Cc1c[nH]c2ccccc12)NC(=O)[C@H](Cc1ccc(O)cc1)NC(=O)[C@@H](N)CC(C)C)[C@@H](C)O)C(=O)N[C@@H](CO)C(=O)N[C@@H](CC(N)=O)C(=O)N[C@H](C(=O)N[C@@H](CO)C(=O)N[C@@H](CCC(=O)O)C(=O)N[C@H](C(=O)N[C@@H](Cc1ccc(O)cc1)C(=O)O)C(C)C)[C@@H](C)CC` [Peptide 89.0009], the negative logarithm of the IC50 (pIC50) in assay [1] is 7.39; in [2], 7.70; in assay [3], 7.72; in assay [4], < 4.70; in assay [5] it was 5.84; in assay [11] it was 6.20. The pIC50 in assay [6] was 5.34; in assay [7] it was 6.50; in assay [9] (Binding affinity DRB1 *1101) it was 5.20; in assay [10] (Binding affinity DRB5 *0101), 6.20.
Consider NCILLYGAANTGKSL [Peptide 89.0017], for which the negative-log IC50 (pIC50) in assay [1] is 7.09; in assay [3] it was < 4.70; in [4], < 4.70; in assay [5], 5.57; in assay [6], < 4.70; in assay [7], 5.67. The values for the pIC50 in [8], in [9] (Binding affinity DRB1 *1101) and in assay [10] (Binding affinity DRB5 *0101) were 6.28, 5.24 and 6.35, respectively.
Regarding `CSCC[C@H](NC(=O)CNC(=O)CNC(=O)[C@H](CCCNC(=N)N)NC(=O)[C@@H](NC(=O)[C@H](CCC(N)=O)NC(=O)[C@H](C)NC(=O)[C@@H](NC(=O)[C@@H](NC(=O)[C@H](CC(C)C)NC(=O)[C@H](Cc1c[nH]cn1)NC(=O)[C@H](Cc1ccc(O)cc1)NC(=O)[C@H](CCCCN)NC(=O)[C@H](Cc1ccccc1)NC(=O)[C@@H](N)CCSC)[C@@H](C)O)C(C)C)C(C)C)C(=O)O` [Peptide 68.0119], the negative logarithm of the IC50 (pIC50) in [4] was < 4.70; in assay [6] it was 6.32.
Take WKLIRMECALLYTAK [Peptide 90.0199]: the negative-log IC50 (pIC50) in assay [3] is 5.50; in assay [4] it was 6.85; in [5], 5.57; in assay [11], 5.40; in [6], 6.80; in [7], 7.01. For the same compound, the pIC50 is 6.29 in assay [12], 7.21 in [8], 5.70 in assay [9] (Binding affinity DRB1 *1101) and 5.44 in [10] (Binding affinity DRB5 *0101).
Turning to `CC(C)C[C@H](NC(=O)[C@@H](NC(=O)[C@H](CCC(=O)O)NC(=O)[C@H](C)NC(=O)[C@H](C)NC(=O)[C@H](C)NC(=O)[C@H](CCC(N)=O)NC(=O)[C@@H](NC(=O)[C@@H](NC(=O)[C@H](Cc1ccccc1)NC(=O)[C@H](C)NC(=O)[C@H](C)NC(=O)[C@@H](N)C(C)C)[C@@H](C)O)C(C)C)[C@@H](C)O)C(=O)N[C@@H](CO)C(=O)N[C@@H](CCC(=O)O)C(=O)O` [Peptide 68.0136], the negative-log IC50 (pIC50) in assay [4] is < 4.70; in [6], 5.35.
Consider TVTFVTEQQQQMFLG [Peptide 90.0210], for which the pIC50 was 5.71 in assay [1]; < 4.70 in assay [3]; 7.39 in assay [4]; 5.22 in [5]; < 4.70 in [11]; 5.56 in [6]. In addition, the negative logarithm of the IC50 (pIC50) in assay [7], in assay [12], in assay [9] (Binding affinity DRB1 *1101) and in assay [10] (Binding affinity DRB5 *0101) was < 4.70 each time.
As for `CC[C@H](C)[C@H](NC(=O)[C@H](Cc1c[nH]c2ccccc12)NC(=O)[C@H](CCCCN)NC(=O)[C@H](CCCNC(=N)N)NC(=O)[C@H](Cc1ccc(O)cc1)NC(=O)[C@H](Cc1c[nH]cn1)NC(=O)[C@@H](NC(=O)[C@@H](NC(=O)[C@H](CCCCN)NC(=O)[C@@H](NC(=O)[C@H](Cc1ccc(O)cc1)NC(=O)[C@H](CC(C)C)NC(=O)[C@H](CO)NC(=O)[C@@H]1CCCN1C(=O)[C@@H](N)CCCNC(=N)N)[C@@H](C)O)C(C)C)C(C)C)C(=O)O` [Peptide 68.0082], the figures for the negative logarithm of the IC50 (pIC50) in assay [4] and in [6] were < 4.70 and 5.38, respectively.
